Experimental data published in ChEMBL document CHEMBL3286098, “α-Methylated simplified resiniferatoxin (sRTX) thiourea analogues as potent and stereospecific TRPV1 antagonists” (Bioorg Med Chem Lett, 2014).
Activity calls are given as the source filed them. The calls are words filed in the database; no cut-off is given here.

Key:
[1] = molecular target: T1, Transient receptor potential cation channel subfamily V member 1 (Rattus norvegicus, UniProt O35433); assay: Displacement of [3H]RTX from rat TRPV1 after 60 mins by competitive binding assay
T1 sequence (O35433 whole entry): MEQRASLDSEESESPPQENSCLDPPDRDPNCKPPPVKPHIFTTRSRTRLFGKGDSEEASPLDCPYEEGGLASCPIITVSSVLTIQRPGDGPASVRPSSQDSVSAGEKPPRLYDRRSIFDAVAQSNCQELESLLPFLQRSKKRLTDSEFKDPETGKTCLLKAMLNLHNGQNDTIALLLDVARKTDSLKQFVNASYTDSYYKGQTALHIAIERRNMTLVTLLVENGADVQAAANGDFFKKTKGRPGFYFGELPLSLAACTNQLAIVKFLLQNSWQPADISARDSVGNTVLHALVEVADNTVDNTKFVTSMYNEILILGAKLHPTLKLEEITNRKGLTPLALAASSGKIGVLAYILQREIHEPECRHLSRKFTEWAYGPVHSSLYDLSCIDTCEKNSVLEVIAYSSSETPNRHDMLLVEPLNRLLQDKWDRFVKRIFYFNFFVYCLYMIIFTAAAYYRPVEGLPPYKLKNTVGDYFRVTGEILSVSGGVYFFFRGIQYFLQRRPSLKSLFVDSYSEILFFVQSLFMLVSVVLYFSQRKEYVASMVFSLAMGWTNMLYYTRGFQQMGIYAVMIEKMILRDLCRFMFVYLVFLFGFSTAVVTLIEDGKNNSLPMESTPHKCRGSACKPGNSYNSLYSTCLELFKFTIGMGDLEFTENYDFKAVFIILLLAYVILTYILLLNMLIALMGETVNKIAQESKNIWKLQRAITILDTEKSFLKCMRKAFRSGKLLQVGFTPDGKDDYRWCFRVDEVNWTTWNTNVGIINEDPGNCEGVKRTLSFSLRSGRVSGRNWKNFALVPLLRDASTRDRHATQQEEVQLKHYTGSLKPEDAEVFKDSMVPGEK

[2] = molecular target: Transient receptor potential cation channel subfamily V member 1 (Rattus norvegicus) (UniProt O35433); assay: Agonist activity at rat TRPV1 heterologously expressed in CHO cells assessed as […] [45Ca2+] uptake by liquid scintillation counting; format: cell-based
Sequence of Transient receptor potential cation channel subfamily V member 1 (Rattus norvegicus) (O35433 whole entry): as above

[3] = molecular target: T1, Transient receptor potential cation channel subfamily V member 1; assay: Antagonist activity at rat TRPV1 heterologously expressed in CHO cells assessed as inhibition of capsaicin-induced [45Ca2+] uptake by liquid scintillation counting; format: cell-based

In the case of `C[C@@H](NC(=S)NC[C@@H](COC(=O)C(C)(C)C)Cc1ccc(C(C)(C)C)cc1)c1ccc(NS(C)(=O)=O)cc1`, the Ki [1] is reported as 0.00675 µM and the Activity [2] is reported as “inactive”.

For `C[C@@H](NC(=S)NC[C@H](COC(=O)C(C)(C)C)Cc1ccccc1)c1ccc(NS(C)(=O)=O)cc1`, the Activity [2] was “inactive”.

`C[C@@H](NC(=S)NC[C@H](COC(=O)C(C)(C)C)Cc1ccc(C(C)(C)C)cc1)c1ccc(NS(C)(=O)=O)cc1` was tested, and the Ki [1] was 0.0179 µM and the Activity [2] was “inactive”.

In the case of `C[C@@H](NC(=S)N[C@@H](COC(=O)C(C)(C)C)Cc1ccccc1)c1ccc(NS(C)(=O)=O)cc1`, the Activity [2] is reported as “inactive”.

With `CC(C)(C)C(=O)OC[C@@H](CNC(=S)NCc1ccc(NS(C)(=O)=O)cc1)Cc1ccc(C(C)(C)C)cc1` the Ki [3] was 0.086 µM and the Ki [1] was 0.064 µM.

In the case of `Cc1ccc(C[C@H](CNC(=S)N[C@H](C)c2ccc(NS(C)(=O)=O)cc2)COC(=O)C(C)(C)C)cc1C`, the Activity [2] is reported as “inactive”.

In the case of `CC(NC(=S)NCC(COC(=O)C(C)(C)C)Cc1ccc(C(C)(C)C)cc1)c1ccc(NS(C)(=O)=O)cc1` (racemic), the Activity [2] is reported as “inactive”.

`Cc1ccc(CC(CNC(=S)NC(C)c2ccc(NS(C)(=O)=O)cc2)COC(=O)C(C)(C)C)cc1C` (racemic) was tested, and the Activity [2] was “inactive”.

In the case of `CC(C)(C)C(=O)OC[C@H](CNC(=S)NCc1ccc(NS(C)(=O)=O)cc1)Cc1ccccc1`, the Ki [3] is reported as 0.0806 µM, the Ki [1] is reported as 0.236 µM and the Activity [2] is reported as “inactive”.

With `Cc1ccc(C[C@@H](CNC(=S)N[C@H](C)c2ccc(NS(C)(=O)=O)cc2)COC(=O)C(C)(C)C)cc1C` the Ki [3] was 0.0132 µM, the Ki [1] was 0.00212 µM and the Activity [2] was “inactive”.

In the case of `C[C@H](NC(=S)NC[C@H](COC(=O)C(C)(C)C)Cc1ccccc1)c1ccc(NS(C)(=O)=O)cc1`, the Activity [2] is reported as “inactive”.

`C[C@H](NC(=S)N[C@H](COC(=O)C(C)(C)C)Cc1ccccc1)c1ccc(NS(C)(=O)=O)cc1` was tested, and the Activity [2] was “inactive”.

`Cc1ccc(C[C@H](CNC(=S)NCc2ccc(NS(C)(=O)=O)cc2)COC(=O)C(C)(C)C)cc1C` showed a Ki [3] of 0.067 µM and a Ki [1] of 0.0293 µM.

For `C[C@@H](NC(=S)N[C@H](COC(=O)C(C)(C)C)Cc1ccccc1)c1ccc(NS(C)(=O)=O)cc1`, the Activity [2] was “inactive”.

For `CC(C)(C)C(=O)OC[C@@H](CNC(=S)NCc1ccc(NS(C)(=O)=O)cc1)Cc1ccccc1`, the Ki [3] was 0.0643 µM, the Ki [1] was 0.252 µM and the Activity [2] was “inactive”.

With `Cc1ccc(CC(CNC(=S)N[C@H](C)c2ccc(NS(C)(=O)=O)cc2)COC(=O)C(C)(C)C)cc1C` (stereo not given in full) the Activity [2] was “inactive”.

With `C[C@@H](NC(=S)NCC(COC(=O)C(C)(C)C)Cc1ccc(C(C)(C)C)cc1)c1ccc(NS(C)(=O)=O)cc1` (stereo not given in full) the Activity [2] was “inactive”.

For `C[C@@H](NC(=S)NC[C@@H](COC(=O)C(C)(C)C)Cc1ccccc1)c1ccc(NS(C)(=O)=O)cc1`, the Activity [2] was “inactive”.

For `C[C@H](NC(=S)N[C@@H](COC(=O)C(C)(C)C)Cc1ccccc1)c1ccc(NS(C)(=O)=O)cc1`, the Activity [2] was “inactive”.

In the case of `C[C@H](NC(=S)NC[C@@H](COC(=O)C(C)(C)C)Cc1ccccc1)c1ccc(NS(C)(=O)=O)cc1`, the Activity [2] is reported as “inactive”.
